Assay results taken from patent US7241789B2, “Substituted indoles and their use as integrin antagonists” (3-Dimensional Pharmaceutical, Inc., priority 2001, dated 2007).

What follows are molecules tested against T1, human αvβ3 (Homo sapiens, UniProt P05106+P06756) (assay: αvβ3-vitronectin Assay). Conditions: inhibition of binding of biotinylated human vitronectin to plate-coated human αvβ3, ELISA, room temperature.
T1 construct: purchased Chemicon CC1019
Protocol: The assay is based on the method of Dennis (Dennis, M. S., et al., Proteins 15: […] (1993)). Costar 9018 flat-bottom 96-well ELISA plates were coated overnight at […] with 100 μL/well of 10 μg/mL human fibrinogen (Calbiochem 341578) in 20 mM Tris-HCl pH 7.5, 150 mM NaCl, 2 mM CaCl2, 0.02% NaN3 (TAC buffer), and blocked for 1 hr at 37° C. with 150 μL/well of TAC buffer containing 0.05% Tween 20 and 1% bovine serum albumin (TACTB buffer). After washing 3 times with 200 μL/well of 10 mM Na2 HPO4 pH 7.5, 150 mM NaCl, 0.01% Tween 20 (PBST buffer), controls or test compound (0.027–20.0 μM) were mixed with 40 μg/mL human GPIIbIIIa (Enzyme Research Laboratories) in TACTB buffer, and 100 μL/well of these solutions were incubated for 1 hr at 37° C. The plate was then washed 5 times with PBST buffer, and 100 μL/well of a monoclonal anti-GPIIbIIIa antibody in TACTB buffer (1 μg/mL, Enzyme Research Laboratories MabGP2b3a) was incubated at 37° C. for 1 hr. After washing (5 times with PBST buffer), 100 μL/well of goat anti-mouse IgG conjugated to horseradish peroxidase (Kirkegaard & Perry 14–23–06) was incubated at 37° C. for 1 hr (25 ng/mL in PBST buffer), followed by a 6-fold PBST buffer wash. The plate was developed by adding 100 μL/well of 0.67 mg o-phenylenediamine dihydrochloride per mL of 0.012% H2O2, 22 mM sodium citrate, 50 mM sodium phosphate, pH 5.0 at room temperature. The reaction was stopped with 50 μL/well of 2M H2SO4, and the absorbence at 492 nm was recorded. Percent (%) inhibition was calculated from the average of three separate determinations relative to buffer controls (no test compound added), and a four parameter fit (Marquardt, D. W., J. Soc. Indust. Appl. Math. 11:431–441 (1963)) was used to estimate the half maximal inhibition concentration (IC50).
The assay was based on the method of Niiya (Niiya, K., et al., Blood 70:475–483 (1987)). Costar 9018 flat-bottom 96-well ELISA plates were coated overnight at room temperature with 100 μL/well of 0.4 μg/mL human αvβ3 (Chemicon CC1019) in TS buffer (20 mM Tris-HCl pH 7.5, 150 mM NaCl, 1 mM CaCl2, 1 mM MgCl2, 1 mM MnCl2). All subsequent steps were performed at room temperature. Plates were blocked for 2 hr with 150 μL/well of TS buffer containing 1% BSA (TSB buffer), and washed 3 times with 200 μL/well of PBST buffer. Controls or test compound (0.0001–20.0 μM) were mixed with 1 μg/mL of human vitronectin (Chemicon CCO80) that had been biotinylated in-house with sulfo-NHS-LC-LC-biotin (Pierce 21338, 20:1 molar ratio), and 100 μL/well of these solutions (in TSB buffer) were incubated for 2 hr. The plate was then washed 5 times with PBST buffer, and 100 μL/well of 0.25 μg/mL NeutrAvidin-horseradish peroxidase conjugate (Pierce 31001) in TSB buffer was incubated for 1 hr. Following a 5-fold PBST buffer wash, the plate was developed and results were calculated as described for the fibrinogen-IIbIIIa assay.

T1 sequence (P06756 31-889 limits assumed): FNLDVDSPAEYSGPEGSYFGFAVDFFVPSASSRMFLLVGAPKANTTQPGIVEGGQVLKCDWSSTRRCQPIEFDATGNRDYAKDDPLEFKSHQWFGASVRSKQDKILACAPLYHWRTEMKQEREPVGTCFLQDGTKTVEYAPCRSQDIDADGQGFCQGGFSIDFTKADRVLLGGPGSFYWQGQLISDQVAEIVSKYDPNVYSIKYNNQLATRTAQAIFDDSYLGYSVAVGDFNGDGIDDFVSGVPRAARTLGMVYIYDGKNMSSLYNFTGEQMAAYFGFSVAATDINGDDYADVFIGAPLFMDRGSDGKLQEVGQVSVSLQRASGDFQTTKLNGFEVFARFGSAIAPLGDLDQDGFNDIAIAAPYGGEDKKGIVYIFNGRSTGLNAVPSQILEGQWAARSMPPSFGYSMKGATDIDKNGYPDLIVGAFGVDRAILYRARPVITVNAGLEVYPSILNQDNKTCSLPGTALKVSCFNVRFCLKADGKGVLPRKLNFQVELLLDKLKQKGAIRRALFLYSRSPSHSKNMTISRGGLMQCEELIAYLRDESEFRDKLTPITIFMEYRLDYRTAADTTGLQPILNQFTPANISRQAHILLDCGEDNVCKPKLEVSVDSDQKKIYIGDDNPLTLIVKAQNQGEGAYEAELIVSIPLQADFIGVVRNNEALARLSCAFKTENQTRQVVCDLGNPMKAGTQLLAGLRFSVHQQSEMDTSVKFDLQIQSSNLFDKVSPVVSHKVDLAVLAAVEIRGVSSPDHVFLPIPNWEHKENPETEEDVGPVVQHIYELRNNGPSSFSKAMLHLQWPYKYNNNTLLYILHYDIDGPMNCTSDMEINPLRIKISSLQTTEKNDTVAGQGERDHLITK
T1 sequence (P06756 891-1048 limits assumed): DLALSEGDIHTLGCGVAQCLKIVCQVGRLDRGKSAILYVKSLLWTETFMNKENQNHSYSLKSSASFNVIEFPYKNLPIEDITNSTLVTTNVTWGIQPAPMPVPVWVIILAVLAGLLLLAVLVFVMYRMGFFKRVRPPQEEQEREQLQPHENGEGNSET
T1 sequence (P05106 27-788): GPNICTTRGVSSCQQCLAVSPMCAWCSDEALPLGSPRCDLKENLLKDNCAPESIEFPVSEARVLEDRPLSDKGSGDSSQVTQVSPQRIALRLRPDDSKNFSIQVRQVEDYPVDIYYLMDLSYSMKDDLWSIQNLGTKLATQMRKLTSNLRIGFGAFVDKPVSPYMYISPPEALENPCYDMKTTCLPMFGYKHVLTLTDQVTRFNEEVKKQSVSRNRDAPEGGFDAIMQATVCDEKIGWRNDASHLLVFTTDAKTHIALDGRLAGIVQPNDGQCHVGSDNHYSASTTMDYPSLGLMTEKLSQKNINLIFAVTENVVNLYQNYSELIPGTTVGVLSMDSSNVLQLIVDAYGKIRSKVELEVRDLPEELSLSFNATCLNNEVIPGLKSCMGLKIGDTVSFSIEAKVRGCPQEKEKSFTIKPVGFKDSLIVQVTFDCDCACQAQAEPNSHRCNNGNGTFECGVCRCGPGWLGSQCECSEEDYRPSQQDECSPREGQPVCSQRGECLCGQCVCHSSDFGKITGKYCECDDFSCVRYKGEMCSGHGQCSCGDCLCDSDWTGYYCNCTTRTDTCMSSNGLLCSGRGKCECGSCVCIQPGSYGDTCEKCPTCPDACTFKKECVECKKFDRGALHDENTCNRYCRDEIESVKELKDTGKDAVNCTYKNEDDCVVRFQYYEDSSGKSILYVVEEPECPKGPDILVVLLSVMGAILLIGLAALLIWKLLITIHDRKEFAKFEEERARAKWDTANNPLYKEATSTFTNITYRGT

Molecule	IC50
CNc1cccc(CCOc2ccc3c(ccn3CCC(=O)O)c2)n1 [Example 5, 3-(5-{2-[6-(Methylamino)-2-pyridyl]ethoxy}indolyl)propanoic acid]	50 nM
O=C(O)CCn1ccc2cc(OCCc3ccc4c(n3)NCCC4)ccc21 [Example 15, 3-{5-[2-(5,6,7,8-Tetrahydro-[1,8]naphthyridin-2-yl)-ethoxy]-indol-1-yl}-propionic acid]	6 nM
CC(Cn1ccc2cc(OCCCNc3ccccn3)ccc21)C(=O)O (stereo not shown) [Example 7, 2-Methyl-3-{5-[3-(2-pyridylamino)propoxy]indolyl}propanoic acid]	500 nM
3-{5-[3-(2-Pyridylamino)propoxy]indolyl}propanoic acid ammonium salt [Example 1]	500 nM
O=C(O)CC(c1cccnc1)n1ccc2cc(OCCc3ccc4c(n3)NCCC4)ccc21 (stereo not shown) [Example 38, 3-Pyridin-3-yl-3-{5-[2-(5,6,7,8-tetrahydro-[1,8]naphthyridin-2-yl)-ethoxy]-indol-1-yl}-propionic acid]	0.24 nM
CCCC(CC(=O)O)n1ccc2cc(OCCc3ccc4c(n3)NCCC4)ccc21 (stereo not shown) [Example 14, 3-{5-[2-(5,6,7,8-Tetrahydro-[1,8]naphthyridin-2-yl)-ethoxy]-indol-1-yl}-hexanoic acid]	4 nM
O=C(O)[C@@H]1C[C@H]1n1ccc2cc(OCCCNc3ccccn3)ccc21 (relative stereo) [Example 4]	670 nM
